Where a name gives a salt, the structure may show the parent alone.
Tested on: male Sprague-Dawley rats
Test: cavernous nerve crush injury rat model: erectile function (ICP, ICP/MAP) on cavernosal nerve stimulation
Format: in vivo
Procedure: Experiments were conducted in male Sprague-Dawley rats according to previously published methods for forceps-induced nerve crush injury and erectile function measurements (Rehman, J., et al., Urology 51:640-644, 1998; Sezen, S. F., et al., Int J. Impot. Res. 14:506-12, 2002). Subjects were anesthetized with Phenobarbital. The prostate of the subjects was exposed and the cavernosal nerve was clipped on either side with a forceps to induce mechanical injury (crush). This rat model mimics the nerve injury that develops during human male prostatectomy, leading to nerve injury and subsequent erectile dysfunction. Subjects were studied 2 weeks after the injury. Two groups of subjects were used, one group treated with vehicle and one group treated with compound 8l methanesulfonate salt. Compound 8l methanesulfonate salt was injected at 30 mg/kg i.v. immediately before the crush injury, and on the following day at the same dose. Thereafter, for 12 days, subjects were treated with 60 mg/kg compound 8l methanesulfonate salt intraperitoneally. At 2 weeks, subjects were re-anesthetized and measured for mean arterial blood pressure (MAP) and intracavernosal pressure (ICP). Cavernosal nerve stimulation was conducted at 5 and 7.5 V using a square pulse stimulator for 30 msec. ICP was determined as the area under curve (mmHg×sec). In addition, IPC/MAP ratios were determined.

**Q.** What does the source list for O=c1[nH]c2c(c3ccccc13)Cc1cc(S(=O)(=O)NCCCN3CCOCC3)ccc1-2 [Compound 8l methanesulfonate salt]?
**A.** erectile function (rat model that mimics the nerve injury that develops during human male prostatectomy, versus vehicle): improves erectile function; ICP (intracavernosal pressure, area under curve) (rats 2 weeks after cavernous nerve crush injury, 30 mg/kg i.v. immediately before injury and next day, then 60 mg/kg i.p. for 12 days, cavernosal nerve stimulation at 5 and 7.5 V, mean ± SEM, n = 14-16, *p < 0.05, vehicle 1124 ± 212, normal approx. 4000): 1471 ± 151* mmHg × sec; ICP/MAP ratio (rats 2 weeks after cavernous nerve crush injury, 30 mg/kg i.v. immediately before injury and next day, then 60 mg/kg i.p. for 12 days, mean ± SEM, n = 14-16, *p < 0.05, vehicle 0.16 ± 0.03, normal approx. 0.8-0.9): 0.23 ± 0.02*
